Measurements: publication PMC5750217 (Nature Communications, 2018)

How the values were obtained:
GltPh-R397C = biological target: T1, GltPh-R397C (Pyrococcus horikoshii, UniProt O59010, R397C); experiment: biochemical; type: binding; conditions: for Apparent number of Na+ ions coupled to binding (n): GltPh-R397C, global fit of isotherms at 10–100 mM Na+, 25 °C
T1 construct: hexa-His (N, cleaved yes); made in house; host or cells: Escherichia coli Top10 (pBAD)
Procedure: Fluorescence-based binding assays were performed by titrating purified protein (50 μg per ml) in 20 mM HEPES/Tris, pH 7.4, 200 mM choline chloride, 0.4 mM n-dodecyl^−β-D-maltopyranoside, 200 nM styryl fluorescent dye RH421 (Invitrogen, Inc., Grand Island, NY) with NaCl, L-ser, L-cys or benzylcysteine at 25 °C[51]. The RH421 dye was excited at 532 nm, and the fluorescence was collected at 628 nm using a QuantaMaster (Photon International Technology, Inc., Edison, NJ). Fluorescence emissions were measured after at least 10 min equilibration to ensure a stabilised signal. The data were analysed using GraphPad Prism version 6.0 for Mac (GraphPad Software, La Jolla California USA). Fractional fluorescence changes were normalised to maximal fluorescence changes, then plotted as a function of ligand concentration and fitted to the Hill equation. All the experiments were performed at least in triplicate.
Analysis of ligand binding data. The voltage sensitive amphipathic dye RH421 reports on Na+ binding to purified GltPh protein in detergent3. RH421 was used to follow Na+ binding to GltPh‐R397C protein either alone or in reactions coupled to binding of amino acids. […]
Coupled ions and amino acid binding was probed by titrating amino acids to the GltPh‐R397C protein in the presence of 10 – 100 mM Na+ ions. The obtained isotherms were analyzed to estimate an apparent number of Na+ ions coupled to binding of the amino acids.
Raw data were first normalized by the initial fluorescence of RH421 and plotted as fraction of fluorescence change (Supplementary […]
total amount of dye and detergent in the assay buffer.
To take into account significant amino acid‐independent Na+ binding, the sets of binding isotherms obtained at variable Na+ concentrations were fitted globally to a simplified binding equation: […]
KD,a is the combined dissociation constant for coupled Na+ and ligand binding and n is the apparent number of coupled ions. Fraction of the protein bound to either Na+ ions alone or to the ions and the […]
Fraction of the protein already bound to Na+ ions before ligand addition is: […]
Fractional fluorescence change Y is fitted to an equation: […]
where Y0 and ∆Y are, respectively, baseline and the signal difference between fully bound and apo […]
KD,a and n were fitted globally for each ligand. Y0 and ∆Y were adjusted for each isotherm independently. […]
individual isotherm to a standard Hill equation, plotted the apparent dissociation constants as functions of Na+ concentrations and compared the values to those predicted using the parameters from the global fits (Supplementary Figure 8).

[1] = biological target: T2, A2-S481T/C482T (mutant ASCT2) (Homo sapiens, UniProt Q15758, C467T/S466T); experiment: Two electrode voltage clamp, substrate-activated anion current in oocytes expressing A2-S481T/C482T; type: cell-based
T2 construct: expressed in transfected cells; host or cells: Xenopus laevis oocytes (cRNA injection)
T2 sequence (Q15758 1-541 S466T/C467T): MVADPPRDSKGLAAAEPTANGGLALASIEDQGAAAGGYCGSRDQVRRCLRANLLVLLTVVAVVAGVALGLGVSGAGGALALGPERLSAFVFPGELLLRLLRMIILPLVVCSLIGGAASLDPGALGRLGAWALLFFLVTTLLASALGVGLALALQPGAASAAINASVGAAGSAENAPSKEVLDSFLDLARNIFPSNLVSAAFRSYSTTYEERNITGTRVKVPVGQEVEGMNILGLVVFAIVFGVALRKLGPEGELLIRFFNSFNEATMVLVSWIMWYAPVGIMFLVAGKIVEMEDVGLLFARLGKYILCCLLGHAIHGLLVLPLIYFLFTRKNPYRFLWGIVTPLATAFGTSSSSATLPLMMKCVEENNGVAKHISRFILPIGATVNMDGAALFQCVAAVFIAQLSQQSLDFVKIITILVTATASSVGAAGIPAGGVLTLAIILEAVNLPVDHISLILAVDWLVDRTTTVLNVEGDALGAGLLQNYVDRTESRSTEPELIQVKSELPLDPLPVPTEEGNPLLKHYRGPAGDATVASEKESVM
Procedure: All chemicals were obtained from Sigma unless otherwise stated. Stage V oocytes were harvested from female Xenopus laevis (frogs) which were obtained from Nasco (Fort Alkinson, USA). Frogs were anaesthetised with 6.5 mM tricaine neutralised with 7.14 mM sodium bicarbonate. After making an incision in the abdomen of the frog, ovarian sacs were removed and stored in OR-2 buffer (82.5 mM NaCl, 2 mM KCl, 1 mM MgCl2, 5 mM hemisodium HEPES, pH 7.5). This surgical procedure follows a protocol (#2016/970) approved by the University of Sydney Animal Ethics Committee under the Australian Code of Practice for the Care and Use of Animals for Scientific Purposes. To isolate oocytes, the ovarian sacs were cut into small sections before being digested by agitation with 2 mg per ml Collagenase A for 1–2 h. Following digestion, defoliculated oocytes were initially rinsed with OR-2, followed by frog Ringer’s solution (96 mM NaCl, 2 mM KCl, 1 mM MgCl2, 1.8 mM CaCl2, 5 mM hemisodium HEPES, pH 7.5). A total of 20 ng of transporter cRNA was injected into oocytes which were stored in frog Ringer’s solution supplemented with 0.1% gentamycin, 50 μg per ml tetracycline, 2.5 mM pyruvate and 0.5 mM theophylline at 16–18 °C.
After 2–4 days of microinjection, current recordings were made using the two electrode voltage clamp technique with a Geneclamp 500 amplifier (Axon Instruments, Foster City, CA) interfaced with a MacLab 2e chart recorder (ADI Instruments, Sydney, Australia) using the chart software, and a Digidata 1322A (Axon Instruments) controlled by an IBM-compatible computer using the pClamp software (version 10, Molecular Devices, Union City, CA). The current–voltage relationships for substrate elicited conductances were obtained by subjecting cells to 200 ms voltage pulses between −100 mV and + 60 mV in 10 mV steps. Current–voltage relationships were calculated by subtracting steady state current measurements in the absence of substrate from corresponding current measurements in the presence of substrate. […]

[2] = A2-S481T/C482T in oocytes, NO3−-containing buffer, current at +60 mV, dash = substrate did not generate currents

T1 sequence (O59010 whole entry R397C): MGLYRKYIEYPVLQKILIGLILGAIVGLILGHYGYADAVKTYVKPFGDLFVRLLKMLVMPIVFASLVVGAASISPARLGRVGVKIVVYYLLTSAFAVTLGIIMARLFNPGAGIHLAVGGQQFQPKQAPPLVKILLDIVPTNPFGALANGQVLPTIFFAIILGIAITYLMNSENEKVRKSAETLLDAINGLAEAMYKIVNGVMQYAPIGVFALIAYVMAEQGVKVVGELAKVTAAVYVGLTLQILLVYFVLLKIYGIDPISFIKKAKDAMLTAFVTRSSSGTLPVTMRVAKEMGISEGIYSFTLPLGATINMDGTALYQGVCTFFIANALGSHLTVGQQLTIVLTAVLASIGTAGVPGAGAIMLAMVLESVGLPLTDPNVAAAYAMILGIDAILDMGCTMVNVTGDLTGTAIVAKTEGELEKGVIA

Structure (SMILES)	Kd (GltPh-R397C)	Apparent number of Na+ ions coupled to binding (n) (GltPh-R397C)	EC50 [1, 2]	GPNA % inhibition of L-serine activated current ([1]; A2-S481T/C482T, GPNA co-applied with EC50 of L-serine, 1 mM GPNA (Table 1 footnote))	EC50 of substrate-activated current [1, 2]
N[C@@H](CS)C(=O)O [L-cysteine]	31 ± 3 µM	1.5 ± 0.04			
N[C@@H](CO)C(=O)O [L-serine]	9 ± 1 µM	1.7 ± 0.04	61 ± 7 µM		
N[C@@H](CCC(=O)Nc1ccc([N+](=O)[O-])cc1)C(=O)O [GPNA, glutamyl-p-nitroanilide]				20 ± 3%	
NC(=O)CC[C@H](N)C(=O)O [L-glutamine]	1800 ± 400 µM	1.1 ± 0.04			did not generate any currents
